Each structure is given as a SMILES string. Activity calls are given as the source filed them. The calls are words filed in the database; no cut-off is given here.

Data set [1] deals with T1, Indoleamine 2,3-dioxygenase 1 (Homo sapiens, UniProt P14902). Briefly: Inhibition of N-terminal hexa-histidine tagged human IDO1 (12 to 403 residues) expressed in Escherichia coli Transetta (DE3) using L-tryptophan as substrate preincubated with enzyme for 10 mins followed by substrate addition and measured after 30 to 60 mins by microplate reader analysis.
Target sequence in this assay (P14902 whole entry, the tested form may be a part): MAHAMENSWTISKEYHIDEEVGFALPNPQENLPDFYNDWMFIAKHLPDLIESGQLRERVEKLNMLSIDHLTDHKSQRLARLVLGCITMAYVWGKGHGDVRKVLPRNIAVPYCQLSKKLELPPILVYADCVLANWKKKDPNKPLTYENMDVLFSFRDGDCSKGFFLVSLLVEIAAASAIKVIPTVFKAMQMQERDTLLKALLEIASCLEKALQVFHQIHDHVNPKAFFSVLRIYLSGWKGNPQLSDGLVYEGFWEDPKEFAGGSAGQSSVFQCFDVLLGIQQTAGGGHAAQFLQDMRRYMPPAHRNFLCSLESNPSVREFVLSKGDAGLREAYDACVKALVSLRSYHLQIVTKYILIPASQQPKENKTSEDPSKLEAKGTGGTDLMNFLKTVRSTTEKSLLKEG
A short description of data set [2]: Cytotoxicity against […] cells assessed as inhibition of cell growth incubated for 24 hrs by MTT assay. In kind it is functional, cell-based. The settings on record: Mus musculus, Hepa1-6, 24 h.
Data set [3] deals with CT26. The experiment in a line: Antitumor activity against mouse CT26 cells implanted in BALB/c mouse assessed as reduction in tumor volume at 50 mg/kg, IG administered every one day for 9 days and measured every 3 days by vernier caliper analysis relative to control. The format is functional, organism-based. The settings on record: time 9.0 day.
In a further data set the test system is B16. Briefly: Cytotoxicity against mouse B16 cells assessed as inhibition of cell growth incubated for 24 hrs by MTT assay. The settings on record: B16, 24 h. In kind it is functional, cell-based. On the technique in general: Formazan colour is commonly taken as a measure of viable cells.
Data set [4] deals with CT26. Briefly: Antitumor activity against mouse CT26 cells implanted in BALB/c mouse assessed as inhibition of tumor volume at 50 mg/kg, IG administered every one day for 9 days and measured every 3 days by vernier caliper analysis relative to control. The format is functional. The conditions noted are these: CT26, po, 216 h, time 9 day.
The target of data set [5] is T2, Tryptophan 2,3-dioxygenase (Homo sapiens, UniProt P48775). Briefly: Inhibition of N-terminal hexa-histidine tagged human TDO (19 to 388 residues) expressed in Escherichia coli Transetta (DE3) using L-tryptophan as substrate preincubated with enzyme for 10 mins followed by substrate addition and measured after 30 to 60 mins by microplate reader analysis.
Target sequence in this assay (P48775 whole entry, the tested form may be a part): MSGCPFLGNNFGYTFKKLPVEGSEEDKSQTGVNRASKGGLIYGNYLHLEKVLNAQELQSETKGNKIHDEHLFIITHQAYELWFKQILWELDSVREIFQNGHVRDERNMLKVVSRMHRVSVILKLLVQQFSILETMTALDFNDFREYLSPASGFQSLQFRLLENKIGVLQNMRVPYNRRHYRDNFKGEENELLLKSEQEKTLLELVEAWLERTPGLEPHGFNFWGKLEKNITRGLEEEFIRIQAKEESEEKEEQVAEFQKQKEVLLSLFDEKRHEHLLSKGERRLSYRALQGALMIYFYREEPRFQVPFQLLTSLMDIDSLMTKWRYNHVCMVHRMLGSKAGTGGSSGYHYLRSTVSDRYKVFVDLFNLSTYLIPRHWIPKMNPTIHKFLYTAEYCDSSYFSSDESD
The test system of the next data set is H22. The experiment in a line: Cytotoxicity against mouse H22 cells assessed as inhibition of cell growth incubated for 24 hrs by MTT assay. In kind it is functional, cell-based. The conditions noted are these: H22, 24 h.
Data set [6] can be described thus: Toxicity in BALB/c mouse implanted with mouse CT26 cells assessed as reduction in body weight at 50 mg/kg, IG administered every one day for 9 days and measured every 3 days. In kind it is organism-based. The settings on record: in vivo, po, 216 h, time 9 day.
Data set [7] addresses T2, Tryptophan 2,3-dioxygenase. Briefly: Inhibition of N-terminal hexa-histidine tagged human TDO (19 to 388 residues) expressed in Escherichia coli Transetta (DE3) using L-tryptophan as substrate at 10 uM preincubated with enzyme for 10 mins followed by substrate addition and measured after 30 to 60 mins by microplate reader analysis relative to control. The conditions noted are these: time 40-70 min.
Target sequence in this assay (P48775 whole entry, looked up, the tested form may be a part): as the sequence (P48775 whole entry, the tested form may be a part) above

In data set [8] the target is T2, Tryptophan 2,3-dioxygenase. Briefly: Inhibition of N-terminal hexa-histidine tagged human TDO (19 to 388 residues) expressed in Escherichia coli Transetta (DE3) using L-tryptophan as substrate at 100 uM preincubated with enzyme for 10 mins followed by substrate addition and measured after 30 to 60 mins by microplate reader analysis relative to control. The settings on record: time 40-70 min.
Target sequence in this assay (P48775 whole entry, looked up, the tested form may be a part): as the sequence (P48775 whole entry, the tested form may be a part) above

In a further data set the test system is HepG2. The experiment in a line: Cytotoxicity against human HepG2 cells assessed as inhibition of cell growth incubated for 24 hrs by MTT assay. In kind it is functional, cell-based. The settings on record: HepG2, 24 h.
Another data set concerns Jurkat. Briefly: Cytotoxicity against human Jurkat cells assessed as inhibition of cell growth incubated for 24 hrs by MTT assay. In kind it is functional, cell-based.
Data set [9] has as its system CT26. The experiment in a line: Antitumor activity against mouse CT26 cells implanted in BALB/c mouse assessed as reduction in tumor weight at 50 mg/kg, IG administered every one day for 9 days and measured every 3 days by vernier caliper analysis. The conditions noted are these: time 9.0 day. The format is functional, organism-based.
For data set [10], the target named is T1, Indoleamine 2,3-dioxygenase 1. The experiment in a line: Inhibition of N-terminal hexa-histidine tagged human IDO1 (12 to 403 residues) expressed in Escherichia coli Transetta (DE3) using L-tryptophan as substrate at 10 uM preincubated with enzyme for 10 mins followed by substrate addition and measured after 30 to 60 mins by microplate reader analysis relative to control. The conditions noted are these: time 40-70 min.
Target sequence in this assay (P14902 whole entry, looked up, the tested form may be a part): as the sequence (P14902 whole entry, the tested form may be a part) above

Data set [11] has the same target. Briefly: Inhibition of N-terminal hexa-histidine tagged human IDO1 (12 to 403 residues) expressed in Escherichia coli Transetta (DE3) using L-tryptophan as substrate at 100 uM preincubated with enzyme for 10 mins followed by substrate addition and measured after 30 to 60 mins by microplate reader analysis relative to control. The conditions noted are these: time 40-70 min.
Target sequence in this assay (P14902 whole entry, looked up, the tested form may be a part): as the sequence (P14902 whole entry, the tested form may be a part) above

A further data set concerns MOLM-13. Briefly: Cytotoxicity against human MOLM-13 cells assessed as inhibition of cell growth incubated for 24 hrs by MTT assay. The settings on record: MOLM-13, 24 h. The format is functional, cell-based.

Broadly, the IC50 is the concentration needed to halve the response being measured. As usually defined, the inhibition in vivo is how much of the control response was suppressed. What is called inhibition is the share of the control response that was lost under treatment. Higher therefore signals a strong effect. For `O=[N+]([O-])c1ccc(O)cc1CNc1cc(Br)cc2[nH]ncc12`, the IC50 in [1] is 0.91 µM; in [2], above 20 µM; in the data set on B16, above 20 µM; in data set [5], 0.46 µM; in the data set with H22 it was above 20 µM; with HepG2, above 20 µM. Besides, the IC50 with Jurkat and in the data set on MOLM-13 was above 20 µM each time. The result in the data set on CT26 [3] and in the data set on CT26 [9] was Active. Further, the inhibition in vivo at 50 mg/kg with CT26 [4] came to 60.5%. The Activity result in data set [6] was “Non-Toxic”. Moreover, the inhibition in [7] amounted to 96%; in data set [8], 99%; in data set [10], 92%; in data set [11], 98%.

These data come from ChEMBL document CHEMBL5108015, “4,6-Disubstituted-1H-Indazole-4-Amine derivatives with immune-chemotherapy effect and in vivo antitumor activity” (Eur J Med Chem, 2022).
